Assay [1] concerns the target T1, SARS-CoV-2 PLpro (nsp3 1564–1878) (Severe acute respiratory syndrome coronavirus 2, UniProt P0DTD1). Briefly: biochemical. The settings on record: high concentration screen, read-out: % of control remaining. Also noted: FRET-quenched peptide (Pro3) cleavage by PLpro, 10 min pre-incubation, slope over 20 min, normalised to no-compound control.
The target of assay [2] is T1, SARS-CoV-2 PLpro (nsp3 1564–1878). The experiment in a line: biochemical. Also noted: FRET-quenched peptide (Pro3) cleavage by PLpro, 10 min pre-incubation, slope over 20 min, normalised to no-compound control. The note with it: low concentration screen, read-out: % of control remaining.

Remaining activity data for 29 molecules are collected here from PMC8286840, “Identifying SARS-CoV-2 antiviral compounds by screening for small molecule inhibitors of Nsp3 papain-like protease” (Biochemical Journal, 2021).

Where a name gives a salt, the structure may show the parent alone. Read-outs that look alike come from different tables or passages of the source.

As for `COC[C@@]12CC[C@H](OC)[C@@]34[C@@H]5C[C@@]6(O)[C@H](OC(=O)c7ccccc7)[C@@H]5[C@@](OC(C)=O)([C@@H]([C@H](OC)[C@H]13)[C@H]4N(C)C2)[C@@H](O)[C@@H]6OC` [Hypaconitine], the remaining activity at 3.75 µM in assay [1] (Well no.=6450) is 87.8%. Also, in assay [2] (Well no.=6450), the remaining activity at 1.25 µM was 88.9%.
As for `O=C1OC(=O)[C@H]2[C@@H]1[C@@H]1CC[C@H]2O1` [Norcantharidin], in assay [1] (Well no.=909), the remaining activity at 3.75 µM came to 97.7%. In assay [2] (Well no.=909), the remaining activity at 1.25 µM was found to be 100%.
In the case of `O=C(Nc1cnc(-c2ccncc2F)c(-c2cccnc2)n1)C1CC1` [LAS101057], the remaining activity at 3.75 µM in assay [1] (Well no.=8599) was found to be 103%. Also, the remaining activity at 1.25 µM in assay [2] (Well no.=8599) came out at 105%.
As to `COc1cc(OC)c(/C=C/S(=O)(=O)Cc2ccc(OC)c(NCC(=O)O)c2)c(OC)c1` [Rigosertib (sodium)], the remaining activity at 3.75 µM in assay [1] (Well no.=6400) came out at 97.7%. The remaining activity at 1.25 µM in assay [2] (Well no.=6400) is 98.5%.
Regarding `NC(=O)N1c2ccccc2C=Cc2ccccc21` [Carbamazepine], the remaining activity at 3.75 µM in assay [1] (Well no.=270) was determined as 94.9%; in assay [1] (Well no.=2215), 95.8%. Also, the results for the remaining activity at 1.25 µM in assay [2] (Well no.=270) and in assay [2] (Well no.=2215) were 96.8% and 97.8%, respectively.
`CCCCCN(C)CCC(O)(P(=O)(O)O)P(=O)(O)O` [Ibandronate sodium salt]: the remaining activity at 3.75 µM in assay [1] (Well no.=6031) stood at 91.1%. For the same molecule, the remaining activity at 1.25 µM in assay [2] (Well no.=6031) worked out at 96.1%.
Consider `O=Cc1c2[nH]c3ccccc3c2cc2[nH]c3ccccc3c12` [6-Formylindolo [3,2-B] carbazole], for which, in assay [1] (Well no.=4507), the remaining activity at 3.75 µM stood at 97.6%. Besides, the remaining activity at 1.25 µM in assay [2] (Well no.=4507) came to 90.7%.
As for `Cc1onc(-c2ccccc2)c1C(=O)N[C@@H]1C(=O)N2[C@@H]1SC(C)(C)[C@@H]2C(=O)O` [Oxacillin], the remaining activity at 3.75 µM in assay [1] (Well no.=2057) came out at 103%. In assay [2] (Well no.=2057), the remaining activity at 1.25 µM was 105%.
In the case of `COc1ccc(N2CCOCC2)c2sc(NC(=O)N3CCC(C)(O)CC3)nc12` [Tozadenant], the remaining activity at 3.75 µM in assay [1] (Well no.=7049) came out at 100%; in assay [1] (Well no.=8115), 102%. Besides, the remaining activity at 1.25 µM in assay [2] (Well no.=7049) is 103%; in assay [2] (Well no.=8115), 99%.
Consider `O=C(Nc1ccccc1Br)N[C@@H]1CCN(c2ccc(C(F)(F)F)cn2)C1` [SB705498], for which the remaining activity at 3.75 µM in assay [1] (Well no.=4735) came out at 106%. Further, in assay [2] (Well no.=4735), the remaining activity at 1.25 µM was 103%.
Regarding `CC(C)(O)CC(=O)NCCn1ccc2ncnc(Nc3ccc(Oc4cccc(C(F)(F)F)c4)c(Cl)c3)c21` [TAK-285], the remaining activity at 3.75 µM in assay [1] (Well no.=4743) was 104%. In addition, the remaining activity at 1.25 µM in assay [2] (Well no.=4743) came out at 102%.
For the molecule `CC[C@H](C(=O)N1CCCC[C@H]1C(=O)O[C@H](CCc1ccc(OC)c(OC)c1)c1cccc(OCC(=O)NCCNC(=O)COc2cccc([C@@H](CCc3ccc(OC)c(OC)c3)OC(=O)[C@@H]3CCCCN3C(=O)[C@@H](CC)c3cc(OC)c(OC)c(OC)c3)c2)c1)c1cc(OC)c(OC)c(OC)c1` [Rimiducid], the remaining activity at 3.75 µM was 91.8% in assay [1] (Well no.=7156) and 89.6% in assay [1] (Well no.=8596). The values for the remaining activity at 1.25 µM in assay [2] (Well no.=7156) and in assay [2] (Well no.=8596) were 94.6% and 96.4%, respectively.
Consider `CC1=CC(=O)C2=C(C)C[C@H](O)[C@@H]3[C@H](OC(=O)[C@H]3C)[C@@H]12` [Austricin], for which the remaining activity at 3.75 µM in assay [1] (Well no.=3105) worked out at 105%. Further, in assay [2] (Well no.=3105), the remaining activity at 1.25 µM was determined as 102%.
Take `CC(C)NCC(O)c1ccc(O)c(O)c1` (stereo not drawn) [S(+)-Isoproterenol (+)-bitartrate]: in assay [1] (Well no.=823), the remaining activity at 3.75 µM came to 105%. Further, the remaining activity at 1.25 µM in assay [2] (Well no.=823) was 102%.
Take `COc1cc(N)c(Cl)cc1C(=O)NC1CCN(Cc2ccccc2)CC1` [Clebopride (malate)]: the remaining activity at 3.75 µM in assay [1] (Well no.=7335) is 102%. Further, the remaining activity at 1.25 µM in assay [2] (Well no.=7335) turned out to be 105%.
For `C=C[C@@]1(C)CC[C@H]2C(=CC[C@@H]3[C@]2(C)CCC[C@@]3(C)C(=O)O)C1` [Isopimaric Acid], in assay [1] (Well no.=5672), the remaining activity at 3.75 µM turned out to be 93.1%. The remaining activity at 1.25 µM in assay [2] (Well no.=5672) worked out at 94.1%.
Turning to `CCCC1O[C@@H]2C[C@H]3[C@@H]4CCC5=CC(=O)C=C[C@]5(C)[C@H]4[C@@H](O)C[C@]3(C)[C@]2(C(=O)CO)O1` (stereo partly drawn) [Budesonide], the results for the remaining activity at 3.75 µM in assay [1] (Well no.=81) and in assay [1] (Well no.=6659) were 102% and 98.7%, respectively. Moreover, the remaining activity at 1.25 µM turned out to be 105% in assay [2] (Well no.=81) and 98.6% in assay [2] (Well no.=6659).
In the case of `CCCNCC(O)COc1ccccc1C(=O)CCc1ccccc1` (stereo not drawn) [Propafenone hydrochloride], in assay [1] (Well no.=956), the remaining activity at 3.75 µM came to 101%. For the same molecule, the remaining activity at 1.25 µM in assay [2] (Well no.=956) was 101%.
Consider `O=C(O)C1=CCNCC1` [Isoguvacine hydrochloride], for which the remaining activity at 3.75 µM in assay [1] (Well no.=412) was determined as 91.8%. Besides, the remaining activity at 1.25 µM in assay [2] (Well no.=412) was 94.2%.
In the case of `CCCCC/C=C\C/C=C\CCCCCCCC(=O)NCC(=O)O` [N-Linoleoylglycine], the remaining activity at 3.75 µM in assay [1] (Well no.=4595) is 94.3%. Further, the remaining activity at 1.25 µM in assay [2] (Well no.=4595) is 95%.
In the case of `Cc1ccc(/C(=C\CN2CCCC2)c2ccccn2)cc1` [Triprolidine hydrochloride], in assay [1] (Well no.=1197), the remaining activity at 3.75 µM was 90.1%. Also, the remaining activity at 1.25 µM in assay [2] (Well no.=1197) came out at 87.7%.
Turning to `COc1cc2ncnc(Nc3ccc(F)c(Cl)c3)c2cc1NC(=O)/C=C/CN1CCCCC1` [Dacomitinib (PF299804,PF-00299804)], in assay [1] (Well no.=5027), the remaining activity at 3.75 µM was found to be 95.4%. In assay [2] (Well no.=5027), the remaining activity at 1.25 µM was 94.2%.
Regarding `CC(=O)OCC(CCn1cnc2cnc(N)nc21)COC(C)=O` [Famciclovir], the remaining activity at 3.75 µM in assay [1] (Well no.=2074) came out at 104%. The remaining activity at 1.25 µM in assay [2] (Well no.=2074) came to 101%.
`O[C@H]1[C@H](O)[C@@H](O)[C@H](O)[C@@H](O)[C@H]1O` [Inositol]: the remaining activity at 3.75 µM in assay [1] (Well no.=5481) is 111%. Moreover, the remaining activity at 1.25 µM in assay [2] (Well no.=5481) came out at 111%.
For `CCC(C(=O)O)C(=O)O` [Ethylmalonic acid], in assay [1] (Well no.=6875), the remaining activity at 3.75 µM stood at 93.4%. In addition, the remaining activity at 1.25 µM in assay [2] (Well no.=6875) amounted to 94.5%.
Turning to `C=CC(=O)Nc1cccc(Oc2nc(Nc3ccc(N4CCN(C)CC4)cc3)ncc2Cl)c1` [WZ3146], the remaining activity at 3.75 µM in assay [1] (Well no.=4711) worked out at 106%. Moreover, the remaining activity at 1.25 µM in assay [2] (Well no.=4711) was determined as 103%.
Turning to `Nc1ccn([C@H]2CC[C@@H](CO)O2)c(=O)n1` ["2',3' - Dideoxycytidine"], the remaining activity at 3.75 µM in assay [1] (Well no.=1980) was 102%. Further, the remaining activity at 1.25 µM in assay [2] (Well no.=1980) came to 103%.
Turning to `CC(=O)OC[C@H]1O[C@@H](n2ccc(=O)[nH]c2=O)[C@H](OC(C)=O)[C@@H]1OC(C)=O` [Uridine triacetate], in assay [1] (Well no.=7996), the remaining activity at 3.75 µM was found to be 94.1%. Also, in assay [2] (Well no.=7996), the remaining activity at 1.25 µM was determined as 92.7%.
`CCNC(=O)[C@@H]1CCCN1C(=O)[C@H](CCCN=C(N)N)NC(=O)[C@H](CC(C)C)NC(=O)[C@@H](C)NC(=O)[C@H](Cc1ccc(O)cc1)NC(=O)[C@H](CO)NC(=O)[C@H](Cc1c[nH]c2ccccc12)NC(=O)[C@H](Cc1cnc[nH]1)NC(=O)[C@@H]1CCC(=O)N1` [Alarelin (Acetate)]: the remaining activity at 3.75 µM in assay [1] (Well no.=8383) worked out at 97%. In assay [2] (Well no.=8383), the remaining activity at 1.25 µM was determined as 98.8%.
